Experimental data as given in patent publication US11795177B2, “Substituted quinoline analogs as aldehyde dehydrogenase 1A1 (ALDH1A1) inhibitors” (THE UNITED STATES OF AMERICA, AS REPRESENTED BY THE …, priority 2017, dated 2023).
Counter-ions that a name gives are not always drawn.

What was measured:
ALDH1A1 enzyme = molecular target: T1, ALDH1A1 enzyme (Homo sapiens, UniProt P00352); assay: ALDH1A1 enzymatic assay (in vitro); type: biochemical; settings: ALDH1A1 enzyme 20 nM, NAD+ 1 mM, propionaldehyde 80 μM; read-out: ALDH1A1 IC50
T1 sequence (P00352 1-501): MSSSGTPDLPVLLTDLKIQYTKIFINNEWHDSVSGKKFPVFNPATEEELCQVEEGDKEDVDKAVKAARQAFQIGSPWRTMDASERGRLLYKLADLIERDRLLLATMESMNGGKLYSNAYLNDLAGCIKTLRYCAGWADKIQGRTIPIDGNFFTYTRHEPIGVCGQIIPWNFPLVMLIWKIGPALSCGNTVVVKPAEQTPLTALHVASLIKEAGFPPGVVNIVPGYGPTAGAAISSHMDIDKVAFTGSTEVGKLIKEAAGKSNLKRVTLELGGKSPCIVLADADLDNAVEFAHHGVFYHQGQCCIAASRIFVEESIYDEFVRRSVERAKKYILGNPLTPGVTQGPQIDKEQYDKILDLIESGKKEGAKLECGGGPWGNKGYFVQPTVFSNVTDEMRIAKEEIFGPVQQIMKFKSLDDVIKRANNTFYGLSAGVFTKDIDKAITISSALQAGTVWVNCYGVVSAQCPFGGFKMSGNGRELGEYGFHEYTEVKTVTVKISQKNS
How it was run: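 ALDH1A1 (20 nM final) in 100 mM HEPES pH 7.5, 0.01% Tween 20 was preincubated 15 min at RT with compound (968 pM–57.2 μM final), then started with 1 mM NAD+ and 80 μM propionaldehyde. NADH fluorescence (ex 340/em 450 nm) followed kinetically for 10 min; change normalized to no-inhibitor and no-enzyme controls for percent inhibition and curve fitting.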

MIA PaCa-2 cells = assay: MIA PaCa2 cell-based assay (1,536-well high-content imaging ALDEFLUOR assay); set-up: species or system human; settings: Homo sapiens, 0.5 h, ALDEFLUOR BAAA substrate 500 nM, 30 minutes
How it was run: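 High-content ALDEFLUOR imaging readout: BAA-retaining cells in FITC channel scored against Hoechst-counted nuclei. Before imaging, MIA PaCa-2 cells seeded at 1,000 per well received final 500 nM BAAA and 0.5 nM Hoechst with compounds in 16-point series (1.4 nM to 47.8 μM), 30 min, 37° C.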

Compound | IC50 (ALDH1A1 enzyme) | IC50 (MIA PaCa-2 cells)
CCNC(=O)N1CCN(C(=O)c2cnc3c(F)c(F)c(F)cc3c2N2CCC(C)(C#N)CC2)CC1 [Example 148, 4-(4-(4-cyano-4-methylpiperidin-1-yl)-6,7,8-trifluoroquinoline-3-carbonyl)-N-ethylpiperazine-1-carboxamide] | 1 to 10 µM | 1 to 10 µM
CS(=O)(=O)N1CCN(C(=O)c2cnc3ccc(F)cc3c2N2CCC(CC#N)CC2)CC1 [Example 214, 2-(1-(6-fluoro-3-(4-(methylsulfonyl)piperazine-1-carbonyl)quinolin-4-yl)piperidin-4-yl)acetonitrile] | 1 to 10 µM | > 10 µM
N#CC1(c2ccc(-c3c(C(=O)N4CCC(O)CC4)cnc4ccc(F)cc34)cc2)CC1 [Cpd. 337, 1-(4-(6-fluoro-3-(4-hydroxypiperidine-1-carbonyl)quinolin-4-yl)phenyl)cyclopropane-1-carbonitrile] | < 0.5 µM | 1 to 10 µM
CC(C)NC(=O)N1CCN(C(=O)c2cnc3ccc(F)cc3c2N2CCC(C)(C#N)CC2)CC1 [Example 90, 4-(4-(4-cyano-4-methylpiperidin-1-yl)-6-fluoroquinoline-3-carbonyl)-N-isopropylpiperazine-1-carboxamide] | 1 to 10 µM | > 10 µM
COc1ccc2ncc(C(=O)N3CCN(C(=O)C4CC4)CC3)c(N3CCC4(CC3)CC4)c2c1 [Example 46, (4-(cyclopropanecarbonyl)piperazin-1-yl)(6-methoxy-4-(6-azaspiro[2.5]octan-6-yl)quinolin-3-yl)methanone] | < 0.5 µM | 1 to 10 µM
COc1cc2ncc(C(=O)N3CCN(S(C)(=O)=O)CC3)c(N3CCC(C)(C#N)CC3)c2cc1OC [Example 113, 1-(6,7-dimethoxy-3-(4-(methylsulfonyl)piperazine-1-carbonyl)quinolin-4-yl)-4-methylpiperidine-4-carbonitrile] | < 0.5 µM | 1 to 10 µM
CC1(C#N)CCN(c2c(C(=O)N3CCN(C(=O)N4CCCC4)CC3)cnc3cc(F)c(F)cc23)CC1 [Example 175, 1-(6,7-difluoro-3-(4-(pyrrolidine-1-carbonyl)piperazine-1-carbonyl)quinolin-4-yl)-4-methylpiperidine-4-carbonitrile] | 1 to 10 µM | 1 to 10 µM
Cc1ccc(C2(C#N)CCN(c3c(C(=O)N4CCN(C(=O)C5CC5)CC4)cnc4ccc(F)cc34)CC2)c(F)c1 [Example 290, 1-(3-(4-(cyclopropanecarbonyl)piperazine-1-carbonyl)-6-fluoroquinolin-4-yl)-4-(2-fluoro-4-methylphenyl)piperidine-4-carbonitrile] | < 0.5 µM | < 0.5 µM
N#CC1(c2ccccc2)CCN(c2c(C(=O)N3CCC(O)(CO)CC3)cnc3ccc(F)cc23)CC1 [Cpd. 351, 1-(6-fluoro-3-(4-hydroxy-4-(hydroxymethyl)piperidine-1-carbonyl)quinolin-4-yl)-4-phenylpiperidine-4-carbonitrile] | < 0.5 µM | < 0.5 µM
COc1ccc2ncc(C(=O)N3CCC(OC)CC3)c(N3CCC(OC)CC3)c2c1 [Example 4, (6-methoxy-4-(4-methoxypiperidin-1-yl)quinolin-3-yl)(4-methoxypiperidin-1-yl)methanone, TFA] | < 0.5 µM | 1 to 10 µM
CN(C)S(=O)(=O)N1CCN(C(=O)c2cnc3ccc(F)cc3c2N2CCC3(CC2)OCCO3)CC1 [Example 152, 4-(6-fluoro-4-(1,4-dioxa-8-azaspiro[4.5]decan-8-yl)quinoline-3-carbonyl)-N,N-dimethylpiperazine-1-sulfonamide] | < 0.5 µM | 0.5 to 1 µM
COc1c(F)cc2c(N3CCC4(CC3)OCCO4)c(C(=O)N3CCN(S(C)(=O)=O)CC3)cnc2c1F [Example 133, (6,8-difluoro-7-methoxy-4-(1,4-dioxa-8-azaspiro[4.5]decan-8-yl)quinolin-3-yl)(4-(methylsulfonyl)piperazin-1-yl)methanone] | < 0.5 µM | 1 to 10 µM
COc1c(F)cc2c(N3CCC(C)(C#N)CC3)c(C(=O)N3CCN(S(C)(=O)=O)CC3)cnc2c1F [Example 137, 1-(6,8-difluoro-7-methoxy-3-(4-(methylsulfonyl)piperazine-1-carbonyl)quinolin-4-yl)-4-methylpiperidine-4-carbonitrile] | < 0.5 µM | 0.5 to 1 µM
CS(=O)(=O)N1CCN(C(=O)c2cnc3ccc(F)cc3c2N2CCN(S(=O)(=O)C3CC3)CC2)CC1 [Example 252, (4-(4-(cyclopropylsulfonyl)piperazin-1-yl)-6-fluoroquinolin-3-yl)(4-(methylsulfonyl)piperazin-1-yl)methanone] | < 0.5 µM | > 10 µM

Next, values leading:

IC50 (ALDH1A1 enzyme) | IC50 (MIA PaCa-2 cells) | Compound
< 0.5 µM | 1 to 10 µM | CCOC(=O)N1CCN(C(=O)c2cnc3cc(OC)c(OC)cc3c2N2CCC(C)(C#N)CC2)CC1 [Example 116, Ethyl 4-(4-(4-cyano-4-methylpiperidin-1-yl)-6,7-dimethoxyquinoline-3-carbonyl)piperazine-1-carboxylate]
< 0.5 µM | 1 to 10 µM | O=C(c1cnc2cc(F)c(F)cc2c1N1CCC2(CC1)OCCO2)N1CCN(C(=O)N2CCCC2)CC1 [Example 170, (6,7-difluoro-4-(1,4-dioxa-8-azaspiro[4.5]decan-8-yl)quinolin-3-yl)(4-(pyrrolidine-1-carbonyl)piperazin-1-yl)methanone]
< 0.5 µM | > 10 µM | COc1ccc2ncc(C(=O)N3CCN(C(=O)c4cnn(C)c4)CC3)c(N3CCC4(CC3)OCCO4)c2c1 [Example 7, (6-methoxy-4-(1,4-dioxa-8-azaspiro[4.5]decan-8-yl)quinolin-3-yl)(4-(1-methyl-1H-pyrazole-4-carbonyl)piperazin-1-yl)methanone, TFA]
< 0.5 µM | > 10 µM | CCOC(=O)N1CCN(C(=O)c2cnc3ccc(OC)cc3c2N2CCC3(CC2)OCCO3)CC1 [Example 40, Ethyl 4-(6-methoxy-4-(1,4-dioxa-8-azaspiro[4.5]decan-8-yl)quinoline-3-carbonyl)piperazine-1-carboxylate]
< 0.5 µM | > 10 µM | CCNC(=O)N1CCN(C(=O)c2cnc3cc(OC)c(OC)cc3c2N2CCC3(CC2)OCCO3)CC1 [Example 140, 4-(6,7-dimethoxy-4-(1,4-dioxa-8-azaspiro[4.5]decan-8-yl)quinoline-3-carbonyl)-N-ethylpiperazine-1-carboxamide]
< 0.5 µM | > 10 µM | CCNC(=O)N1CCN(C(=O)c2cnc3cc(OC)c(OC)cc3c2N2CCC(C)(C#N)CC2)CC1 [Example 115, 4-(4-(4-cyano-4-methylpiperidin-1-yl)-6,7-dimethoxyquinoline-3-carbonyl)-N-ethylpiperazine-1-carboxamide]
0.5 to 1 µM | 1 to 10 µM | CCNC(=O)N1CCN(C(=O)c2cnc3cc(F)c(F)cc3c2N2CCC(C)(C#N)CC2)CC1 [Example 146, 4-(4-(4-cyano-4-methylpiperidin-1-yl)-6,7-difluoroquinoline-3-carbonyl)-N-ethylpiperazine-1-carboxamide]
< 0.5 µM | 1 to 10 µM | CCNC(=O)N1CCN(C(=O)c2cnc3cc(F)c(F)cc3c2N2CCC3(CC2)OCCO3)CC1 [Example 142, 4-(6,7-difluoro-4-(1,4-dioxa-8-azaspiro[4.5]decan-8-yl)quinoline-3-carbonyl)-N-ethylpiperazine-1-carboxamide]
